These results are taken from patent US10273248B2, “Glucose uptake inhibitors” (Kadmon Corporation LLC, priority 2015, dated 2019).

One test deals with glycolysis in HT1080 cells. Description: Glycolysis assay: oligomycin plus compound, cellular ATP by Cell Titer Glo. The settings on record: 10 μM oligomycin, one hour, class symbols. The class given is cell-based. The method, boiled down:
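Confluent HT1080 cells treated 1 h with compound plus 10 μM oligomycin to block mitochondrial ATP, so remaining ATP reflects glycolysis. Cellular ATP read by Cell Titer-Glo luminescence; IC50 derived from dose-response curves.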
On the technique in general: ATP-based viability assays read luminescence as a measure of living cells.
With `O=C(Nc1cccc(-c2nc(Nc3ccc(-c4cn[nH]c4)cc3)c3sccc3n2)c1)c1cccnc1` [Example 178, N-(3-(4-((4-(1H-pyrazol-4-yl)phenyl)amino)thieno[3,2-d]pyrimidin-2-yl)phenyl)nicotinamide], the IC50 was 10 to 100 nM.

The same test, now with this note: Homo sapiens, HT-1080, 1 h, 10 μM oligomycin, one hour, class symbols.
Consider `CCC(C)(C)NC(=O)COc1cccc(-c2nc3c(c(Nc4ccc(-c5cn[nH]c5)cc4)n2)CN(C(=O)C(C)C)CC3)c1` [Example 156, 2-(3-(4-((4-(1H-pyrazol-4-yl)phenyl)amino)-6-isobutyryl-5,6,7,8-tetrahydropyrido[4,3-d]pyrimidin-2-yl)phenoxy)-N-(tert-pentyl)acetamide], for which the IC50 lay in the range of 10 to 100 nM. As to `O=C(COc1cccc(-c2nc3c(c(Nc4ccc(-c5cn[nH]c5)cc4)n2)CNCC3)c1)NC1CCC1` [Example 157, 2-(3-(4-((4-(1H-pyrazol-4-yl)phenyl)amino)-5,6,7,8-tetrahydropyrido[4,3-d]pyrimidin-2-yl)phenoxy)-N-cyclobutylacetamide], the IC50 lay in the range of 101 to 250 nM. On the same count and under the same terms, the same measure for `CC(C)N1CCc2nc(-c3cccc(OCC(=O)NC4CCC4)c3)nc(Nc3ccc(-c4cn[nH]c4)cc3)c2C1` [Example 159, 2-(3-(4-((4-(1H-pyrazol-4-yl)phenyl)amino)-6-isopropyl-5,6,7,8-tetrahydropyrido[4,3-d]pyrimidin-2-yl)phenoxy)-N-cyclobutylacetamide]: 251 to 500 nM; for `CCN1CCc2nc(-c3cccc(OCC(=O)NC4CCC4)c3)nc(Nc3ccc(-c4cn[nH]c4)cc3)c2C1` [Example 160, 2-(3-(4-((4-(1H-pyrazol-4-yl)phenyl)amino)-6-ethyl-5,6,7,8-tetrahydropyrido[4,3-d]pyrimidin-2-yl)phenoxy)-N-cyclobutylacetamide]: 251 to 500 nM; for `CC(C)CNC(=O)COc1cccc(-c2nc3c(c(Nc4ccc(-c5cn[nH]c5)cc4)n2)CNCC3)c1` [Example 161, 2-(3-(4-((4-(1H-pyrazol-4-yl)phenyl)amino)-5,6,7,8-tetrahydropyrido[4,3-d]pyrimidin-2-yl)phenoxy)-N-isobutylacetamide]: 251 to 500 nM.

`CCN1CCc2nc(-c3cccc(OCC(=O)NCC(C)C)c3)nc(Nc3ccc(-c4cn[nH]c4)cc3)c2C1` [Example 164, 2-(3-(4-((4-(1H-pyrazol-4-yl)phenyl)amino)-6-ethyl-5,6,7,8-tetrahydropyrido[4,3-d]pyrimidin-2-yl)phenoxy)-N-isobutylacetamide]: the IC50 fell in the range of 251 to 500 nM. Take `CCC(C)(C)NC(=O)COc1cccc(-c2nc(Nc3ccc(-c4cn[nH]c4)cc3)c3ccncc3n2)c1` [Example 165, 2-(3-(4-((4-(1H-pyrazol-4-yl)phenyl)amino)pyrido[3,4-d]pyrimidin-2-yl)phenoxy)-N-(tert-pentyl)acetamide]: the IC50 was 10 to 100 nM. With `CCC(C)(C)NC(=O)COc1cccc(-c2nc3c(c(Nc4ccc(-c5cn[nH]c5)cc4)n2)COCC3)c1` [Example 166, 2-(3-(4-((4-(1H-pyrazol-4-yl)phenyl)amino)-7,8-dihydro-5H-pyrano[4,3-d]pyrimidin-2-yl)phenoxy)-N-(tert-pentyl)acetamide], the IC50 was in the range of 10 to 100 nM. As for `CC(C)(C)CNC(=O)COc1cccc(-c2nc3c(c(Nc4ccc(-c5cn[nH]c5)cc4)n2)CNCC3)c1` [Example 167, 2-(3-(4-((4-(1H-pyrazol-4-yl)phenyl)amino)-5,6,7,8-tetrahydropyrido[4,3-d]pyrimidin-2-yl)phenoxy)-N-neopentylacetamide], the IC50 fell in the range of 10 to 100 nM.

For the compound `CN1CCc2nc(-c3cccc(OCC(=O)NCC(C)(C)C)c3)nc(Nc3ccc(-c4cn[nH]c4)cc3)c2C1` [Example 168, 2-(3-(4-((4-(1H-pyrazol-4-yl)phenyl)amino)-6-methyl-5,6,7,8-tetrahydropyrido[4,3-d]pyrimidin-2-yl)phenoxy)-N-neopentylacetamide], the IC50 lay in the range of 101 to 250 nM. Same read-out and setting: the result for `CCN1CCc2nc(-c3cccc(OCC(=O)NCC(C)(C)C)c3)nc(Nc3ccc(-c4cn[nH]c4)cc3)c2C1` [Example 170, 2-(3-(4-((4-(1H-pyrazol-4-yl)phenyl)amino)-6-ethyl-5,6,7,8-tetrahydropyrido[4,3-d]pyrimidin-2-yl)phenoxy)-N-neopentylacetamide] reads 101 to 250 nM; that for `CC(C(=O)Nc1cccc(-c2nc3c(c(Nc4ccc(-c5cn[nH]c5)cc4)n2)COC3)c1)N1CCOCC1` (stereo not shown) [Example 171, N-(3-(4-((4-(1H-pyrazol-4-yl)phenyl)amino)-5,7-dihydrofuro[3,4-d]pyrimidin-2-yl)phenyl)-2-morpholinopropanamide], 501 to 1000 nM; that for `CC(C(=O)Nc1cccc(-c2nc(Nc3ccc(-c4cn[nH]c4)cc3)c3occc3n2)c1)N1CCOCC1` (stereo not shown) [Example 172, N-(3-(4-((4-(1H-pyrazol-4-yl)phenyl)amino)furo[3,2-d]pyrimidin-2-yl)phenyl)-2-morpholinopropanamide], 101 to 250 nM. Regarding `CC(C(=O)Nc1cccc(-c2nc(Nc3ccc(-c4cn[nH]c4)cc3)c3sccc3n2)c1)N1CCOCC1` (stereo not shown) [Example 173, N-(3-(4-((4-(1H-pyrazol-4-yl)phenyl)amino)thieno[3,2-d]pyrimidin-2-yl)phenyl)-2-morpholinopropanamide], the IC50 is 251 to 500 nM. In the case of `O=C(Nc1cccc(-c2nc(Nc3ccc(-c4cn[nH]c4)cc3)c3sccc3n2)c1)c1ccncc1` [Example 174, N-(3-(4-((4-(1H-pyrazol-4-yl)phenyl)amino)thieno[3,2-d]pyrimidin-2-yl)phenyl)isonicotinamide], the IC50 lay within 501 to 1000 nM. Consider `O=C(Nc1cccc(-c2nc3c(c(Nc4ccc(-c5cn[nH]c5)cc4)n2)COC3)c1)c1ccncc1` [Example 175, N-(3-(4-((4-(1H-pyrazol-4-yl)phenyl)amino)-5,7-dihydrofuro[3,4-d]pyrimidin-2-yl)phenyl)isonicotinamide], for which the IC50 lay in the range of 501 to 1000 nM.

On to `O=C(Nc1cccc(-c2nc(Nc3ccc(-c4cn[nH]c4)cc3)c3sccc3n2)c1)c1ccccn1` [Example 176, N-(3-(4-((4-(1H-pyrazol-4-yl)phenyl)amino)thieno[3,2-d]pyrimidin-2-yl)phenyl)picolinamide], for which the 50% inhibitory concentration (IC50) was more than 1000 nM. Still for that read-out and setting: the same measure for `O=C(Nc1cccc(-c2nc3c(c(Nc4ccc(-c5cn[nH]c5)cc4)n2)COC3)c1)c1ccccn1` [Example 177, N-(3-(4-((4-(1H-pyrazol-4-yl)phenyl)amino)-5,7-dihydrofuro[3,4-d]pyrimidin-2-yl)phenyl)picolinamide]: 10 to 100 nM; for `O=C(COc1cccc(-c2nc(Nc3ccc(-c4cn[nH]c4)cc3)c3sccc3n2)c1)NC1CC(F)(F)C1` [Example 179, 2-(3-(4-((4-(1H-pyrazol-4-yl)phenyl)amino)thieno[3,2-d]pyrimidin-2-yl)phenoxy)-N-(3,3-difluorocyclobutyl)acetamide]: 251 to 500 nM; for `O=C(COc1cccc(-c2nc(Nc3ccc(-c4cn[nH]c4)cc3)c3sccc3n2)c1)NC1CCCCC1` [Example 180, 2-(3-(4-((4-(1H-pyrazol-4-yl)phenyl)amino)thieno[3,2-d]pyrimidin-2-yl)phenoxy)-N-cyclohexylacetamide]: 101 to 250 nM.

The test is the same for the next values; noted with them: Homo sapiens, HT-1080, 1 h, 10 μM oligomycin, one hour, number printed instead of class.
Take `CC(C)N1CCc2nc(-c3cccc(OCC(=O)NCC(C)(C)C)c3)nc(Nc3ccc(-c4cn[nH]c4)cc3)c2C1` [Example 169, 2-(3-(4-((4-(1H-pyrazol-4-yl)phenyl)amino)-6-isopropyl-5,6,7,8-tetrahydropyrido[4,3-d]pyrimidin-2-yl)phenoxy)-N-neopentylacetamide]: the IC50 is 290 nM.

What is called IC50 is the concentration that inhibits the measured activity by half.
